Reference: patent US12116333B1, “3,3'-(hydrazine-1,2-diyl)bis(1-(naphthalen-2-yloxy)propan-2-ol) as an ecofriendly insecticidal agent against spodoptera littoralis (boisd.)” (KING FAISAL UNIVERSITY, priority 2023, dated 2024)
Converted amounts (≈) assume the structure as drawn.

Tested on: Spodoptera littoralis
Experiment: Insecticidal bioassay screening (castor leaf dip) against 2nd and 4th instar larvae
Assay type: in vivo
Details: for Toxic ratio: 72 h, fenoxycarb's LC50/compound's LC50 ×100
Description: Five concentrations (200, 100, 50, 25, 12.5 ppm) were designed for this synthetic compound and the reference fenoxycarb compound as the dynamic ingredients based on ppm via diluting the commercial formulation.
In this experiment, castor leaves were immersed in each of the previously prepared concentrations of the components for 10 seconds and then left to dry for 60 minutes.
Larvae of the second and fourth instars of each checked strain were prepared with treated leaves in gauze-covered glass containers for 72 hrs. An untreated control was made in which leaves were dipped in triton x-100 and distilled water only. Then, the preserved leaves were removed & fresh, untreated leaves were provided for 72 hours. Three replicates (10 larvae each) were checked for each concentration. Daily inspection was carried out for all treatments and mortality percentages were recorded 3 days (72 hours) after treatment. The average mortality percentage was corrected employing Abbott's formula. The corrected mortality rate for each of the previously synthesized compounds was statistically calculated according to Finney (1970). Through this rate, the corresponding concentration test lines (LDP lines) were assessed. Fifty and ninety percent mortality was determined, and the regression values for the checked products were previously evaluated.

CCOC(=O)NCCOc1ccc(Oc2ccccc2)cc1 [Fenoxycarb]
LC50 (2nd instar larvae of S. littoralis, after 72 h of treatment): 2.73 ppm | Toxic ratio (2nd instar larvae): 100 | LC50 (4th instar larvae of S. littoralis, after 72 h of treatment): 43.231 ppm | Toxic ratio (4th instar larvae): 1 | LC50 (Spodoptera littoralis, foliar): 2.73 mg/L (≈ 9.06 µM)
